*1 amine or outer side, *2 acyl side, *3 side chain or, on linkers, in order; H or OH if unused. Where a SMILES comes first, the peptide text is derived from it. Bridges are numbered along the chain shown (N, C = ends). [ ]: non-standard residue; d: D form. ξ: configuration not given here. X3 = O=C(C[C@@H](CO)C(=O)[*:2])[C@H](Cc1c[nH]c2ccccc12)N[*:1]; X2 = NC(=O)C[C@H](N[*:1])C(=O)C1CCC[C@H]1C(=O)[*:2]; Bta = N[C@@H](Cc1csc2ccccc12)C(=O)O; Hyp = O=C(O)[C@@H]1C[C@@H](O)CN1; NMehSer = CN[C@@H](CCO)C(=O)O; NMeNle = CCCC[C@H](NC)C(=O)O; dNle = CCCC[C@@H](N)C(=O)O; NMeA = CN[C@@H](C)C(=O)O; Orn = NCCC[C@H](N)C(=O)O; Dap = NC[C@H](N)C(=O)O; ξC = NC(CS)C(=O)O
Each compound was assayed against T1, Human PD-L1/PD-1 (Homo sapiens, UniProt Q9NZQ7) (assay: HTRF Human PD-L1/PD-1 binding assay (PD-1-Ig/PD-L1-His)). Details: PD-L1-His 10 nM, PD-1-Ig 20 nM; class symbol; read-out: HTRF Human PD-L1/PD-1 Binding Assay IC50 Range.
T1 construct: TVMV protease cleavage site (C); made in house; host or cells: HEK293T cells
T1 sequence (Q9NZQ7 with tags, fused parts or gaps): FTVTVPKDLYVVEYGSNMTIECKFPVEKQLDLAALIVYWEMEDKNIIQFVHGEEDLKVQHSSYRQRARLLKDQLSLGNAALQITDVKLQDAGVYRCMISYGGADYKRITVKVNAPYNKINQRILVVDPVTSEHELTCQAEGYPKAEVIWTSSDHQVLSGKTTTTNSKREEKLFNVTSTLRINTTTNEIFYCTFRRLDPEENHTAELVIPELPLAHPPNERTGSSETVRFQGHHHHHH
Method in brief: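 HTRF competition using HEK293T-expressed human PD-1(25-167)-Ig at 20 nM and PD-L1(18-239)-His at 10 nM, compound incubated first with PD-L1 for 15 min, then with PD-1 for 15 min. Signal read as 665/620 nm ratio 30 min after adding Eu anti-Ig and APC anti-His antibodies.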
Compound `CCCC[C@H]1NC(=O)[C@H](Cc2csc3ccccc23)NC(=O)[C@H](CO)NC(=O)[C@H](Cc2c[nH]c3ccccc23)NC(=O)[C@@H]2C[C@@H](O)CN2C(=O)[C@H](CC(C)C)NC(=O)[C@H](Cc2cnc[nH]2)NC(=O)[C@@H]2CCCN2C(=O)[C@H](CC(N)=O)NC(=O)[C@H](C)N(C)C(=O)[C@H](Cc2ccc(O)cc2)NC(=O)CSCC(C(=O)NCC(N)=O)NC(=O)[C@H](CCCNC(=N)N)NC(=O)[C@H](CCCC)N(C)C1=O` (stereo partly drawn) [Example 10123] ({CH2CO}-Y[NMeA]NPHL[Hyp]WS[Bta][dNle][NMeNle]R[ξC]G-NH2; thioether N-14) has an IC50 of 0.1 to 0.99 µM. For `CCCC[C@H]1NC(=O)[C@H](Cc2c[nH]c3ccccc23)NC(=O)[C@H](CO)NC(=O)[C@H](Cc2c[nH]c3ccccc23)NC(=O)[C@@H]2C[C@@H](O)CN2C(=O)[C@H](CCC(N)=O)NC(=O)[C@H](Cc2cnc[nH]2)NC(=O)[C@@H]2CCCN2C(=O)[C@H](CC(N)=O)NC(=O)[C@H](C)N(C)C(=O)[C@H](Cc2ccc(O)cc2)NC(=O)CSCC(C(=O)NCC(N)=O)NC(=O)[C@H](CCCNC(=N)N)NC(=O)[C@H](CCCC)N(C)C1=O` (stereo partly drawn) [Example 10126] ({CH2CO}-Y[NMeA]NPHQ[Hyp]WSW[dNle][NMeNle]R[ξC]G-NH2; thioether N-14), the IC50 was 1 to 10 µM. In the case of `CCCC[C@H]1NC(=O)[C@H](Cc2c[nH]c3ccccc23)NC(=O)[C@H](CO)CC(=O)[C@H](Cc2c[nH]c3ccccc23)NC(=O)[C@@H]2C[C@@H](O)CN2C(=O)[C@H](CCC(N)=O)NC(=O)[C@H](Cc2cnc[nH]2)NC(=O)[C@@H]2CCCC2C(=O)[C@H](CC(N)=O)NC(=O)[C@H](C)N(C)C(=O)[C@H](Cc2ccc(O)cc2)NC(=O)CSCC(C(=O)NCC(N)=O)NC(=O)[C@H](CCC(=O)O)NC(=O)[C@H](CCCC)N(C)C1=O` (stereo partly drawn) [Example 10127] ({CH2CO}-Y[NMeA][X2]HQ[Hyp][X3]W[dNle][NMeNle]E[ξC]G-NH2; thioether N-12), the IC50 is reported as 1 to 10 µM. Work on `CCCC[C@H]1NC(=O)[C@H](Cc2c[nH]c3ccccc23)NC(=O)[C@H](CO)NC(=O)[C@H](Cc2c[nH]c3ccccc23)NC(=O)[C@@H]2C[C@@H](O)CN2C(=O)[C@H](CCC(N)=O)NC(=O)[C@H](Cc2cnc[nH]2)NC(=O)[C@@H]2CCCN2C(=O)[C@H](CC(=O)O)NC(=O)[C@H](C)N(C)C(=O)[C@H](Cc2ccc(O)cc2)NC(=O)CSCC(C(=O)NCC(N)=O)NC(=O)[C@H](CCC(=O)O)NC(=O)[C@H](CCCC)N(C)C1=O` (stereo partly drawn) [Example 10128] ({CH2CO}-Y[NMeA]DPHQ[Hyp]WSW[dNle][NMeNle]E[ξC]G-NH2; thioether N-14) yielded an IC50 of 1 to 10 µM. `CCCC[C@H]1NC(=O)[C@H](Cc2c[nH]c3ccccc23)NC(=O)[C@H](CO)NC(=O)[C@H](Cc2c[nH]c3ccccc23)NC(=O)[C@@H]2C[C@@H](O)CN2C(=O)[C@H](CCCN)NC(=O)[C@H](Cc2cnc[nH]2)NC(=O)[C@@H]2CCCN2C(=O)[C@H](CC(N)=O)NC(=O)[C@H](C)N(C)C(=O)[C@H](Cc2ccc(O)cc2)NC(=O)CSCC(C(=O)NCC(N)=O)NC(=O)[C@H](CCC(=O)O)NC(=O)[C@H](CCCC)N(C)C1=O` (stereo partly drawn) [Example 10129] ({CH2CO}-Y[NMeA]NPH[Orn][Hyp]WSW[dNle][NMeNle]E[ξC]G-NH2; thioether N-14) was tested, and the IC50 was 1 to 10 µM. In the case of `CCCC[C@H]1NC(=O)[C@H](Cc2c[nH]c3ccccc23)NC(=O)[C@H](CO)NC(=O)[C@H](Cc2c[nH]c3ccccc23)NC(=O)[C@@H]2C[C@@H](O)CN2C(=O)[C@H](CCCN)NC(=O)[C@H](Cc2cnc[nH]2)NC(=O)[C@@H]2CCCN2C(=O)[C@H](CC(=O)O)NC(=O)[C@H](C)N(C)C(=O)[C@H](Cc2ccc(O)cc2)NC(=O)CSCC(C(=O)NCC(N)=O)NC(=O)[C@H](CCC(=O)O)NC(=O)[C@H](CCCC)N(C)C1=O` (stereo partly drawn) [Example 10130] ({CH2CO}-Y[NMeA]DPH[Orn][Hyp]WSW[dNle][NMeNle]E[ξC]G-NH2; thioether N-14), the IC50 is reported as 1 to 10 µM. In the case of `CCCC[C@H]1NC(=O)[C@H](Cc2c[nH]c3ccccc23)NC(=O)[C@H](CO)NC(=O)[C@H](Cc2c[nH]c3ccccc23)NC(=O)[C@@H]2C[C@@H](O)CN2C(=O)[C@H](CC(C)C)NC(=O)[C@H](Cc2cnc[nH]2)NC(=O)[C@@H]2CCCN2C(=O)[C@H](CC(=O)O)NC(=O)[C@H](C)N(C)C(=O)[C@H](Cc2ccc(O)cc2)NC(=O)CSCC(C(=O)NCC(N)=O)NC(=O)[C@H](CCC(=O)O)NC(=O)[C@H](CCCC)N(C)C1=O` (stereo partly drawn) [Example 10132] ({CH2CO}-Y[NMeA]DPHL[Hyp]WSW[dNle][NMeNle]E[ξC]G-NH2; thioether N-14), the IC50 is reported as 0.1 to 0.99 µM. In the case of `CCCC[C@H]1C(=O)N[C@@H](CCC(=O)O)C(=O)N[C@H](C(=O)NCC(N)=O)CSCC(=O)N[C@@H](Cc2ccc(O)cc2)C(=O)N(C)[C@@H](C)C(=O)N[C@@H](CC(=O)O)C(=O)N2CCC[C@H]2C(=O)N[C@@H](Cc2c[nH]cn2)C(=O)N[C@@H](CCC(N)=O)C(=O)N2C[C@H](O)C[C@H]2C(=O)N[C@@H](Cc2c[nH]c3ccccc23)C(=O)N[C@@H](CO)C(=O)N[C@@H](Cc2c[nH]c3ccccc23)C(=O)N(C)[C@@H](CCOC)C(=O)N1C` [Example 10136] ({CH2CO}-Y[NMeA]DPHQ[Hyp]WSW[NMehSer](Me)[NMeNle]ECG-NH2; thioether N-14), the IC50 is reported as 0.001 to 0.0099 µM. Work on `CCCC[C@H]1C(=O)N[C@@H](CC(C)C)C(=O)N[C@H](C(=O)NCC(N)=O)CSCC(=O)N[C@@H](Cc2ccc(O)cc2)C(=O)N(C)[C@@H](C)C(=O)N[C@@H](CC(N)=O)C(=O)N2CCC[C@H]2C(=O)N[C@@H](Cc2c[nH]cn2)C(=O)N[C@@H](CCC(N)=O)C(=O)N2C[C@H](O)C[C@H]2C(=O)N[C@@H](Cc2c[nH]c3ccccc23)C(=O)NCC(=O)N[C@@H](Cc2c[nH]c3ccccc23)C(=O)N(C)[C@@H](CCOC)C(=O)N1C` [Example 10137] ({CH2CO}-Y[NMeA]NPHQ[Hyp]WGW[NMehSer](Me)[NMeNle]LCG-NH2; thioether N-14) yielded an IC50 of 0.01 to 0.0999 µM. Compound `CCCC[C@H]1C(=O)N[C@@H](CN)C(=O)N[C@H](C(=O)NCC(N)=O)CSCC(=O)N[C@@H](Cc2ccc(O)cc2)C(=O)N(C)[C@@H](C)C(=O)N[C@@H](CC(=O)O)C(=O)N2CCC[C@H]2C(=O)N[C@@H](Cc2c[nH]cn2)C(=O)N[C@@H](CCC(N)=O)C(=O)N2C[C@H](O)C[C@H]2C(=O)N[C@@H](Cc2c[nH]c3ccccc23)C(=O)N[C@@H](CO)C(=O)N[C@@H](Cc2c[nH]c3ccccc23)C(=O)N(C)[C@@H](CCOC)C(=O)N1C` [Example 10139] ({CH2CO}-Y[NMeA]DPHQ[Hyp]WSW[NMehSer](Me)[NMeNle][Dap]CG-NH2; thioether N-14) has an IC50 of 0.001 to 0.0099 µM.

Same assay, conditions: PD-L1-His 10 nM, PD-1-Ig 20 nM; read-out: HTRF Human PD-L1/PD-1 Binding Assay IC50
`CCCC[C@H]1NC(=O)[C@H](Cc2c[nH]c3ccccc23)NC(=O)[C@H](CO)NC(=O)[C@H](Cc2c[nH]c3ccccc23)NC(=O)[C@@H]2C[C@@H](O)CN2C(=O)[C@H](CC(C)C)NC(=O)[C@H](Cc2cnc[nH]2)NC(=O)[C@@H]2CCCN2C(=O)[C@H](CC(N)=O)NC(=O)[C@H](C)N(C)C(=O)[C@H](Cc2ccc(O)cc2)NC(=O)CSCC(C(=O)NCC(N)=O)NC(=O)[C@H](CCC(=O)O)NC(=O)[C@H](CCCC)N(C)C1=O` (stereo partly drawn) [Example 10131] gave an IC50 of 2.9 µM. Compound `CCCC[C@H]1C(=O)N[C@@H](CO)C(=O)N[C@H](C(=O)NCC(N)=O)CSCC(=O)N[C@@H](Cc2ccc(O)cc2)C(=O)N(C)[C@@H](C)C(=O)N[C@@H](CC(N)=O)C(=O)N2CCC[C@H]2C(=O)N[C@@H](Cc2c[nH]cn2)C(=O)N[C@@H](CCC(N)=O)C(=O)N2C[C@H](O)C[C@H]2C(=O)N[C@@H](Cc2c[nH]c3ccccc23)C(=O)N[C@@H](CO)C(=O)N[C@@H](Cc2c[nH]c3ccccc23)C(=O)N(C)[C@@H](CCOC)C(=O)N1C` [Example 10138] ({CH2CO}-Y[NMeA]NPHQ[Hyp]WSW[NMehSer](Me)[NMeNle]SCG-NH2; thioether N-14) has an IC50 of 0.18 µM.
